Experimental data published in patent US20220053777A1, “NON-TOXIC ANT-REPELLING GEL” (priority 2013, published 2022).

Assay: Observation of polymerization (viscosity increase) of oleic acid with/without fumed silica and air
Assay type: physicochemical
From the text: We can conclude that it is the addition of fumed silica to the oleic acid formula which is responsible for promoting this polymerization reaction. […] Based on chemical fundamentals we theorize that it is the fumed silica's high surface area that acts as the catalyst to increase the reaction between the oleic acid and oxygen in the air to promote oxidation, resulting in cross-linking, resulting in polymerization, resulting in an increase in viscosity and hardening. Since only some of the oleic acid molecules participate in this polymerization reaction, the rest of the oleic acid in the gel formulation is free to still act as an effective repellent.

**Q.** Which Polymerization (Exposure to Air: Yes) does the source give for `CCCCCCCC/C=C\CCCCCCCC(=O)O` [Oleic Acid, oleic acid] here?
**A.** Its Polymerization is “No”.

**Q.** And the “increase in viscosity (polymerization)” value (exposed to air, temperatures normally encountered in the environment)?
**A.** Its value is “no substantial increase in viscosity”.
